Source: patent US20220040263A1, “COMPANION DIAGNOSTIC FOR COMBINATION LENALIDOMIDE AND ERYTHROPOIETIN TREATMENT” (H. Lee Moffitt Cancer Center and Research Institute, Inc., priority 2016, published 2022)

Assays:
UT-7 cells = experiment: UT7 colony forming assay with or without EPO; format: cell-based
Experimental: FIGS. 1A and 1B show Lenalidomide potentiates clonogenic response to […]. […] Colonies were scored after 14 days incubation and the growth of bone marrow colony-forming unit granulocyte, erythroid, macrophage, megakaryocyte (CFU-GEMM); burst-forming unit-erythroid (BFU-E); and colony-forming unit granulocyte-macrophage (CFU-GM) assessed. […] Cells were then plated in methylcellulose+10% FBS, 2000 cells/well, with or without erythropoietin (EPO). Colonies were scored at day seven.
When UT7 cells were exposed to lenalidomide prior to culture initiation with EPO, supra-additive colony forming capacity was observed that exceeded growth induced by EPO and/or lenalidomide treatments [P=0.001].

STAT5 [1] = experiment: STAT5 DNA binding by EMSA in UT7 nuclear extracts; format: cell-based; conditions: combined lenalidomide and EPO treatment
STAT5 [2] = experiment: EPO-induced phospho-STAT5 MFI in CD71+ primary MDS cells by flow cytometry; format: cell-based, human
Experimental: BM-MNC were serum deprived in IMDM and 0.4% BSA for 1 hour, then treated as described in FIG. 5. RHu-EPO stimulated cells were treated 5 U/ml×15 minutes at 37° C. Cells were fixed in BD Cytofix (Beckon Dickenson) ×10 minutes, washed in BD Stain Buffer then re-suspended in ice cold 90% methanol. After washing ×2, cells were stained with anti-pSTAT5-phycoerthryin (PE) conjugated antibody and CD71-allophycocyanin (APC) conjugated antibody [20 μg/10^6 cells]. Cells were washed ×2 with stain buffer before transfer to FACScan tubes and analysis on the FACScan flow cytometer. The gated CD71+ cell population accounted for 11.35% of BM-MNC. Results reflect phospho-STAT5:PE MFI in a representative patient specimen. Anti-pSTAT5, CD71-APC and CD34-APC antibodies were purchased from BD-Pharmingen.
To confirm that lenalidomide enhances STAT5 phosphorylation in erythroid precursors from primary BM specimens, BM specimens were evaluated from Low- or Intermediate-1 risk MDS by flow cytometry. As in the UT7 cell line, lenalidomide increased EPO-induced phosphorylation of STAT5 in CD71+ erythroid precursors, whereas lenalidomide alone had no effect on STAT5 phosphorylation [FIG. 3]. The STAT5 phosphorylation delta (PD), i.e., the increase in mean fluorescence intensity (MFI) for EPO-induced STAT5 phosphorylation with the addition of lenalidomide compared to EPO alone was 43.5 relative MFI units, representing a 24% increase in pSTAT5 MF.

Csk = Csk and phospho-Lyn507 in UT7 cells by Western immunoblot; format: cell-based; conditions: lenalidomide alone or combined with EPO
Experimental: Serum starved UT7 cells were treated with either vehicle alone (control), CC5013 (2 hours), EPO (30 minutes), or CC5013 followed by addition of EPO at the concentrations indicated. Cells were lysed and assayed for β-actin (Sigma), phospho-Lyn507, total Lyn and Csk (Cell Signaling) by Western immunoblot as described previously. Protein loading was normalized to β-actin, and immunoblot signals of phosphorylated Lyn were normalized to total Lyn and actin by band densitometry.
The Lyn/Src signal response is inhibited through both Csk phosphorylation of the C-terminal tyrosine residue enabled by SFK phosphorylation of the Csk-binding protein (Csk/Pag), and by the action of the CD45 PTP that dephosphorylatse the SFK activation loop tyrosine. There were minor changes in phosphorylation of the C-terminal tyrosine of Src and Lyn kinases despite significant increases in phosphorylation of the Src activation loop tyrosine [FIGS. 5 and 6]. A minor reduction in C-terminal tyrosyl phosphorylation relative to total Lyn was associated with a decrease in total Csk that was apparent with treatment with either lenalidomide alone or when combined with EPO [FIG. 6].

[3] = system: LR non-del(5q) MDS patients refractory to, or not candidates for, rhEpo; experiment: Randomized phase III trial LEN vs LEN+EA; format: in vivo, human
From the text: Treatment with rhu-Epo ameliorates anemia in a subset of LR-MDS patients, however, effective salvage therapy is limited. LEN promotes erythroid lineage competence and expansion of primitive erythroid precursors in vitro. In the MDS-002 and MDS-005 trials, treatment with LEN improved erythropoiesis, yielding RBC transfusion-independence in 26% of azanucleoside-naive, transfusion-dependent (TD) LR, non-del(5q) MDS patients for a median of 10.2 and 7.75 months, respectively. LEN restores Epo-responsiveness in MDS progenitors by inducing the formation of lipid rafts enriched for signaling competent JAK2/Epo-receptor complexes with exclusion of large isoforms of the JAK2/lyn kinase-phosphatase CD45 generated by alternative splicing (McGraw K, et. al. PLoS One 2014). […] To test this hypothesis, randomized phase III trial was performed comparing treatment with LEN to LEN+EA in LR non-del(5q) MDS patients who were refractory to, or not candidates for treatment with rhEpo.
Patients with Low or Intermediate-1 (Int-1) risk IPSS MDS with hemoglobin <9.5 g/dL who were unresponsive to rhEpo treatment or were TD (>2 units/mo) with serum Epo >500 mU/mL were eligible for study. Patients were stratified by serum Epo level and prior rhEpo (EA vs. darbepoetin vs. none) then randomized to treatment with LEN 10 mg/d×21d q4 wk (Arm A) or LEN+EA 60,000 U SC/wk (Arm B). Primary endpoint was IWG 2006 major erythroid response (MER) rate after 4 cycles. Arm A non-responders were offered cross-over to combined therapy. Secondary endpoints included analysis of response biomarkers.

[4] = system: lower risk MDS patients who have failed treatment with rhu-EPO; conditions: cited from earlier work
[5] = system: MDS patients without 5q deletions; conditions: cited from earlier work

Nc1cccc2c1CN(C1CCC(=O)NC1=O)C2=O (stereo not shown) [lenalidomide, 3-(4-amino-1-oxo-1,3-dihydro-2H-isoindol-2-yl)piperidine-2,6-dione]
colony forming capacity (UT-7 cells; UT7 cells exposed to lenalidomide prior to culture initiation with EPO, P=0.001): supra-additive
colony forming capacity (UT-7 cells; lenalidomide 1 μM alone, UT7 cells): minimal effect
STAT5 DNA binding (nuclear translocation) (STAT5 [1]): greater DNA binding
EPO-induced phosphorylation of STAT5 (STAT5 [2]; CD71+ erythroid precursors, Low- or Intermediate-1 risk MDS BM): increased
STAT5 phosphorylation (STAT5 [2]; CD71+ erythroid precursors, lenalidomide alone): no effect
STAT5 phosphorylation delta (PD): increase in MFI for EPO-induced STAT5 phosphorylation with lenalidomide compared to EPO alone (STAT5 [2]; CD71+ primary MDS cells, representative patient specimen): 43.5 relative MFI units
increase in pSTAT5 MFI (STAT5 [2]; EPO + lenalidomide compared to EPO alone, CD71+ cells): 24%
total Csk (Csk): decrease
MER rate among patients evaluable at week 16 ([3]; 116 evaluable patients, P=0.018): 14.3%
major erythroid response (MER) rate, ITT analysis ([3]; IWG 2006 MER, interim analysis of 163 patients, P=0.015): 9.9%
median duration of response ([3]; MER responders): not reached
cytogenetic response ([4]; del5q patients): 74%
transfusion-independence ([4]; del5q patients): 67%
erythroid response ([4]; patients with chromosome 5q31 interstitial deletion (del5q)): 76%
MER rate ([4]; patients with normal or alternate karyotypes): 25-30%
patients who benefit from lenalidomide therapy [5]: Approximately 25%
